Reference: the NIST ThermoML archive (doi:10.1016/j.jct.2008.11.003)
Numbers after ± are expanded uncertainties.

Legend:
[1] = refractive index (Na D-line) (dimensionless); details: 101.33 kPa, Liquid, Standard Abbe refractometry
[2] = 101.33 kPa, Liquid; for mass density: Vibrating tube method; for viscosity: Cone and plate viscometry

Row | SMILES | refractive index ([1]; 293.15 K) | refractive index ([1]; 298.15 K) | refractive index ([1]; 303.15 K) | refractive index ([1]; 308.15 K) | refractive index ([1]; 313.15 K) | refractive index ([1]; 318.15 K) | refractive index ([1]; 323.15 K) | refractive index ([1]; 328.15 K) | refractive index ([1]; 333.15 K) | mass density ([2]; 293.15 K) | viscosity ([2]; 298.2 K) | mass density ([2]; 303.15 K) | viscosity ([2]; 303.2 K) | viscosity ([2]; 308.2 K) | mass density ([2]; 313.15 K) | viscosity ([2]; 313.2 K) | viscosity ([2]; 318.2 K) | mass density ([2]; 323.15 K) | viscosity ([2]; 323.2 K) | viscosity ([2]; 328.2 K) | further results
1 | CC(=O)[O-].[NH3+]CCO [2-hydroxyethylammonium acetate] | 1.43775 ± 0.05 | 1.43682 ± 0.05 | 1.43593 ± 0.05 | 1.4351 ± 0.05 | 1.43428 ± 0.05 | 1.43356 ± 0.05 | 1.43287 ± 0.05 | 1.43223 ± 0.05 | 1.43164 ± 0.05 | 1148.66 ± 11 kg/m3 | 313.15 ± 64 mPa·s | 1143.39 ± 11 kg/m3 | 224.68 ± 46 mPa·s | 162.91 ± 33 mPa·s | 1138.02 ± 11 kg/m3 | 120.26 ± 24 mPa·s | 92.56 ± 19 mPa·s | 1132.52 ± 11 kg/m3 | 70.68 ± 14 mPa·s | 56.56 ± 11 mPa·s | mass density ([2]; 333.15 K): 1126.94 ± 11 kg/m3; viscosity ([2]; 333.2 K): 43.91 ± 8.8 mPa·s; viscosity ([2]; 338.2 K): 34.98 ± 7 mPa·s; mass density ([2]; 343.15 K): 1121.26 ± 11 kg/m3; viscosity ([2]; 343.2 K): 29.04 ± 5.8 mPa·s; viscosity ([2]; 348.2 K): 24.05 ± 4.8 mPa·s; mass density ([2]; 353.15 K): 1115.47 ± 11 kg/m3; mass density ([2]; 363.15 K): 1109.55 ± 11 kg/m3
2 | CC(O)C(=O)[O-].[NH3+]CCO (stereo not given) [2-hydroxyethylammonium lactate] | 1.43858 ± 0.05 | 1.43758 ± 0.05 | 1.43658 ± 0.05 | 1.43557 ± 0.05 | 1.43455 ± 0.05 | 1.43354 ± 0.05 | 1.43252 ± 0.05 | 1.43148 ± 0.05 | 1.43043 ± 0.05 | 1204.52 ± 11 kg/m3 | 254.25 ± 52 mPa·s | 1197.84 ± 11 kg/m3 | 181.45 ± 37 mPa·s | 133.32 ± 27 mPa·s | 1191.86 ± 11 kg/m3 | 100.02 ± 20 mPa·s | 76.88 ± 15 mPa·s | 1185.78 ± 11 kg/m3 | 60.18 ± 12 mPa·s | 48.12 ± 9.7 mPa·s | mass density ([2]; 333.15 K): 1179.64 ± 11 kg/m3; viscosity ([2]; 333.2 K): 38.12 ± 7.7 mPa·s; viscosity ([2]; 338.2 K): 31.02 ± 6.2 mPa·s; mass density ([2]; 343.15 K): 1173.45 ± 11 kg/m3; viscosity ([2]; 343.2 K): 24.98 ± 5 mPa·s; viscosity ([2]; 348.2 K): 21.26 ± 4.3 mPa·s; mass density ([2]; 353.15 K): 1167.19 ± 11 kg/m3; mass density ([2]; 363.15 K): 1160.86 ± 11 kg/m3
3 | CC(O)C(=O)O.OCCNCCO [diethanolamine lactate] | 1.44156 ± 0.05 | 1.44142 ± 0.05 | 1.44109 ± 0.05 | 1.44056 ± 0.05 | 1.43983 ± 0.05 | 1.43891 ± 0.05 | 1.43776 ± 0.05 | 1.43642 ± 0.05 | 1.43489 ± 0.05 | 1206.34 ± 11 kg/m3 | 288.56 ± 59 mPa·s | 1198.77 ± 11 kg/m3 | 204.15 ± 41 mPa·s | 148.54 ± 30 mPa·s | 1192.47 ± 11 kg/m3 | 110.25 ± 22 mPa·s | 84.34 ± 17 mPa·s | 1186.14 ± 11 kg/m3 | 65.45 ± 13 mPa·s | 51.78 ± 10 mPa·s | mass density ([2]; 333.15 K): 1179.73 ± 11 kg/m3; viscosity ([2]; 333.2 K): 42.15 ± 8.5 mPa·s; viscosity ([2]; 338.2 K): 33.45 ± 6.7 mPa·s; mass density ([2]; 343.15 K): 1173.25 ± 11 kg/m3; viscosity ([2]; 343.2 K): 27.15 ± 5.5 mPa·s; viscosity ([2]; 348.2 K): 22.45 ± 4.5 mPa·s; mass density ([2]; 353.15 K): 1166.69 ± 11 kg/m3; mass density ([2]; 363.15 K): 1160.03 ± 11 kg/m3
4 | CC(=O)[O-].C[NH+](CCO)CCO [N-methyldiethanolammonium acetate] | 1.43302 ± 0.05 | 1.43215 ± 0.05 | 1.43122 ± 0.05 | 1.43023 ± 0.05 | 1.42922 ± 0.05 | 1.42813 ± 0.05 | 1.42702 ± 0.05 | 1.42583 ± 0.05 | 1.42462 ± 0.05 | 1141.42 ± 11 kg/m3 | 198.91 ± 40 mPa·s | 1132.76 ± 11 kg/m3 | 144.69 ± 29 mPa·s | 108.33 ± 22 mPa·s | 1125.85 ± 11 kg/m3 | 83.56 ± 17 mPa·s | 64.12 ± 13 mPa·s | 1118.75 ± 11 kg/m3 | 50.96 ± 10 mPa·s | 40.45 ± 8.1 mPa·s | mass density ([2]; 333.15 K): 1111.46 ± 11 kg/m3; viscosity ([2]; 333.2 K): 32.15 ± 6.5 mPa·s; viscosity ([2]; 338.2 K): 25.98 ± 5.2 mPa·s; mass density ([2]; 343.15 K): 1103.98 ± 11 kg/m3; viscosity ([2]; 343.2 K): 22.32 ± 4.5 mPa·s; viscosity ([2]; 348.2 K): 18.45 ± 3.7 mPa·s; mass density ([2]; 353.15 K): 1096.28 ± 11 kg/m3; mass density ([2]; 363.15 K): 1088.36 ± 11 kg/m3
5 | CC(=O)[O-].OCC[NH2+]CCO [2,2'-azanediylbis(ethanol) acetate] | 1.43431 ± 0.05 | 1.43338 ± 0.05 | 1.43238 ± 0.05 | 1.43137 ± 0.05 | 1.43029 ± 0.05 | 1.42916 ± 0.05 | 1.42798 ± 0.05 | 1.42673 ± 0.05 | 1.42547 ± 0.05 | 1173.85 ± 11 kg/m3 | 566.89 ± 120 mPa·s | 1166.39 ± 11 kg/m3 | 376.59 ± 77 mPa·s | 260.02 ± 53 mPa·s | 1160.12 ± 11 kg/m3 | 183.97 ± 37 mPa·s | 136.06 ± 28 mPa·s | 1153.96 ± 11 kg/m3 | 101.06 ± 20 mPa·s | 78.35 ± 16 mPa·s | mass density ([2]; 333.15 K): 1147.64 ± 11 kg/m3; viscosity ([2]; 333.2 K): 60.25 ± 12 mPa·s; viscosity ([2]; 338.2 K): 48.79 ± 9.8 mPa·s; mass density ([2]; 343.15 K): 1141.22 ± 11 kg/m3; viscosity ([2]; 343.2 K): 38.65 ± 7.8 mPa·s; viscosity ([2]; 348.2 K): 31.51 ± 6.3 mPa·s; mass density ([2]; 353.15 K): 1134.66 ± 11 kg/m3; mass density ([2]; 363.15 K): 1127.97 ± 11 kg/m3
